Experiments:
[1] = tested on: HCT116 (3D); assay: Cytotoxicity in 3D spheroids (colonospheres), Cell Titer-Glo 3D; type: cell-based, human
Experimental: A spontaneous spheroid formation was used to generate colonospheres derived from the HCT116 cell line. The HCT116 cells were seeded on 96-well ultralow attachment plates (1400 cells/well) and cultivated in a tumor sphere-forming medium (DMEM/F12, supplemented with B27 (Invitrogen), BSA, bFGF (10 ng mL^–1), and EGF (20 ng mL^–1)) for 4 days. After the incubation period, colonospheres were treated with Ru complexes for another 3 days. The viability of colonospheres was determined by the Cell Titer-Glo 3D cell viability assay (Promega) according to the manufacturer’s instructions. The reported IC50 values are the average of three independent experiments, each consisting of three replicates per concentration level. Bright-field images of the spheroids were taken as well to determine the effect on the morphology of the spheroids.

[2] = tested on: MMC-2; assay: MTT assay, NER-deficient cells; type: cell-based, Chinese hamster; conditions: 72 h
From the text: (§1) The human cervical carcinoma HeLa cells and human colorectal carcinoma cells HCT116 were kindly supplied by Professor B. Keppler, University of Vienna (Austria). Human rhabdomyosarcoma RD cells were purchased from the American Type Culture Collection (ATCC, Manassas, VA). Human breast cancer MCF-7 cells, human skin melanoma 518A2 cells, and human MRC5pd30 cells derived from normal lung tissue were purchased from the European Collection of Authenticated Cell Cultures (ECACC) (Salisbury, U.K.). Chinese hamster ovary CHO-K1 cell line (wild type) and its derivative MMC-2 carrying the ERCC3/XPB mutation (NER-deficient) cell line were kindly supplied by Dr. […], Cancer Research Institute, Slovak Academy of Sciences, Bratislava (Slovakia). In vitro antiproliferative activity of Ru complexes was determined by the MTT or, alternatively, SRB assay as already described,[84] after 72 h of incubation of cells with various concentrations of the Ru complex. The reported IC50 values are an average of three independent experiments, each consisting of three replicates per concentration.

[3] = tested on: HeLa; set-up: method as in PMID 30740808; conditions: MTT, 72 h; cited from earlier work
[4] = tested on: MRC5pd30; set-up: method as in PMID 30740808; conditions: MTT, 72 h; cited from earlier work
[5] = tested on: 518A2; set-up: method as in PMID 32555811; conditions: MTT, 72 h; cited from earlier work
[6] = tested on: MCF-7; set-up: method as in PMID 30740808; conditions: MTT, 72 h; cited from earlier work
[7] = tested on: HCT116; set-up: method as in PMID 30740808; conditions: MTT, 72 h; cited from earlier work
[8] = tested on: RD; assay: MTT antiproliferative assay; type: cell-based, human; conditions: 72 h, mean ± SD
Experimental: All of the cell lines were cultivated in DMEM medium (high glucose 4.5 g L^–1, PAA, Pasching, Austria) supplemented with gentamycin (50 μg mL^–1, Serva, Heidelberg, Germany) and 10% heat-inactivated fetal bovine serum (PAA). The medium for MRC5pd30 cells was further supplemented by 1% nonessential amino acids (Sigma-Aldrich, Prague, Czech Republic). All cells were cultured as adherent monolayers in a humidified incubator at 37 °C in a 5% CO2 atmosphere and subcultured twice a week with an appropriate plating density. In vitro antiproliferative activity of Ru complexes was determined by the MTT or, alternatively, SRB assay as already described,[84] after 72 h of incubation of cells with various concentrations of the Ru complex. The reported IC50 values are an average of three independent experiments, each consisting of three replicates per concentration.

[9] = tested on: DNA; set-up: method as in PMID 25888926, PMID 28623355; conditions: cited from earlier work
[10] = tested on: CHO-K1; assay: MTT assay, wild-type cells; type: cell-based, Chinese hamster; conditions: 72 h
From the text: as §1

Question: Which “effect on the morphology of 3D spheroids” value ([1]; 20 µM, 72 h, bright-field images) does the source give for `N.N.[Cl][Pt][Cl]` [cisplatin] here?
Answer: heterogeneous morphology with several dissociated cell clumps

Question: What about the IC50 ([1]; Cell Titer-Glo, spheroids, 72 h of treatment) of the same compound?
Answer: 44.6 ± 1.8 µM

Question: And the IC50 [2]?
Answer: 5.5 ± 0.8 µM

Question: And the IC50 [3]?
Answer: 14 ± 3 µM

Question: What about the IC50 [4] of the same compound?
Answer: 11.7 ± 0.8 µM

Question: What about the IC50 [5] of the same compound?
Answer: 2.6 ± 0.7 µM

Question: What about the IC50 [6] of the same compound?
Answer: 13 ± 3 µM

Question: And the IC50 [7]?
Answer: 8 ± 1 µM

Question: What about the IC50 [8] of the same compound?
Answer: 4.6 ± 0.3 µM

Question: What about the “intracellular platinum that reaches the nucleus and binds to DNA” value [9] of the same compound?
Answer: 2–3%

Question: And the IC50 [10]?
Answer: 54 ± 6 µM
